The structures appear in SMILES notation. Structures can show the parent of a compound that is named as a salt. Where two headings read alike, the source gives them in different places.

Data on 27 compounds can be found in patent publication US8354414B2, “Substituted bicyclic pyrimidines” (Cephalon, Inc, priority 2006, dated 2013).

For one data set, the target named is T1, His6-GSK-3β (Homo sapiens, UniProt P49841).
T1 construct: made in house; host or cells: Sf21 insect cells (baculovirus)
Kind of data set: Inhibition of His6-GSK-3β kinase activity (ELISA-based format, time-resolved fluorescence readout). Format: biochemical. The following applies: for IC50: read-out: GSK3β IC50. The method in brief:
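Plate-bound recombinant GST-Rb substrate was phosphorylated for 30 min at 37° C by baculovirus-expressed His6-GSK-3β (200 ng/ml) at 20 μM ATP, 10 mM MgCl2, 2.5% DMSO. Europium time-resolved fluorescence of anti-phospho-Ser780 Rb signal gave inhibition, fitted to IC50.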

For the next data set, the target named is T2, CDK5/GST-p25 (Homo sapiens, UniProt Q00535).
T2 construct: The final construct, encoding for full-length human CDK5; made in house; host or cells: Sf21 insect cells (baculovirus co-infection)
Kind of data set: Inhibition of CDK5/GST-p25 kinase activity (ELISA with time-resolved fluorescence readout). Format: biochemical. The method in brief: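 The substrate, GST-Rb(773-928), was immobilised on plates and phosphorylated for 20 min at 37 °C by 2 ng/ml CDK5/GST-p25 in HEPES pH 7.2 with 10 µM ATP and 10 mM MgCl2. Both proteins were human and co-expressed in insect cells. Ser-780 phosphorylation was read by europium time-resolved fluorescence and converted to IC50.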
(An ELISA detects its analyte on a solid surface through an enzyme-linked reagent.)

T2 sequence (Q00535 whole entry): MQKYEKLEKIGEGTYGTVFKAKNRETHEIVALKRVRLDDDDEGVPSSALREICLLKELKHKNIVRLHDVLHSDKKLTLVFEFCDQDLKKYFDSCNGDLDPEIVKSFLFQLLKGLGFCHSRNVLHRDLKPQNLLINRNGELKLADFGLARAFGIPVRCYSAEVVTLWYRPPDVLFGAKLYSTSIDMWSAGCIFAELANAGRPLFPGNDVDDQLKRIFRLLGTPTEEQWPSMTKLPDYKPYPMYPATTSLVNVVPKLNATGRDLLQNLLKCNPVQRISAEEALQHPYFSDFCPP
T2 sequence (Q15078 108-307 partner limits assumed): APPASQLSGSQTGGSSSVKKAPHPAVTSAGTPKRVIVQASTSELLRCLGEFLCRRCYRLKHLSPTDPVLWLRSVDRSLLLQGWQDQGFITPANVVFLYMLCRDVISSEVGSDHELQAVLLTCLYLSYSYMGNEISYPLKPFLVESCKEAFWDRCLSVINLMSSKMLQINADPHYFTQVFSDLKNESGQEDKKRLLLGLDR
T1 sequence (P49841 2-419): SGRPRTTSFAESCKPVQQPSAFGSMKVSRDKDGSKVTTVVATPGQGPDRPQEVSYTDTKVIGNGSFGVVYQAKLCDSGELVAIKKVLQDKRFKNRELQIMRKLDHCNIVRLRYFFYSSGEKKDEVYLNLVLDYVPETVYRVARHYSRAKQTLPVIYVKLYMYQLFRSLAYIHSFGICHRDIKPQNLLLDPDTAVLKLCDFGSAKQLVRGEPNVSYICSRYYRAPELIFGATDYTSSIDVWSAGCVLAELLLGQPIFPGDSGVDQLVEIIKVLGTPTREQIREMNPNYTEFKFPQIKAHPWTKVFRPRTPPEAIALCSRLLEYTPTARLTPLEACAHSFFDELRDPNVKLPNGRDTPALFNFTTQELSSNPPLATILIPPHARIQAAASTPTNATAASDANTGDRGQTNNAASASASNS

Compound `COCCn1cc2c(C3C(=O)Nc4ccc(Br)cc43)nc(NCCC3CCCNC3)nc2n1` (centres unmarked) (as salt: hydrochloride) [Example 228, 5-Bromo-3-[2-(2-methoxy-ethyl)-6-(2-piperidin-3-yl-ethylamino)-2H-pyrazolo[3,4-d]pyrimidin-4-yl]-1,3-dihydro-indol-2-one] had a melting point of 270 to 273 °C.

In turn, `CCCn1cc2c(C3C(=O)Nc4ccc(Br)cc43)nc(NCCCNC)nc2n1` (centres unmarked) (as salt: hydrochloride) [Example 201, 5-Bromo-3-[6-(3-methylamino-propylamino)-2-propyl-2H-pyrazolo [3,4-d]pyrimidin-4-yl]-1,3-dihydro-indol-2-one hydrochloride] gave a melting point of 271 to 273 °C.

On to `CNCCCNc1nc(C2C(=O)Nc3ccc(Br)cc32)c2cn(CCOC)nc2n1` (centres unmarked) (as salt: hydrochloride) [Example 226, 5-Bromo-3-[2-(2-methoxy-ethyl)-6-(3-methylamino-propylamino)-2H-pyrazolo[3,4-d]pyrimdin-4-yl]-1,3-dihydro-indol-2-one], for which the melting point lay in the range of 232 to 236 °C.

As for `CN(C)CCNc1nc(C2C(=O)Nc3ccc(Br)cc32)c2cn(C3CCCC3)nc2n1` (centres unmarked) (as salt: TFA) [Example 370, 5-Bromo-3-[2-cyclopentyl-6-(2-dimethylamino-ethylamino)-2H-pyrazolo [3,4-d]pyrimidin-4-yl]-1,3-dihydro-indol-2-one], the melting point lay in the range of 190 to 192 °C.

On to `CCCCCn1cc2c(C3C(=O)Nc4ccc(C(F)(F)F)cc43)nc(Cl)nc2n1` (centres unmarked), for which the melting point was 267 °C (dec.).

`CCOCCn1cc2c(C3C(=O)Nc4ccc(Cl)cc43)nc(NCCCNC)nc2n1` (centres unmarked) (as salt: hydrochloride) [Example 215, 5-Chloro-3-[2-(2-ethoxy-ethyl)-6-(3-methylamino-propylamino)-2H-pyrazolo [3,4-d]pyrimidin-4-yl]-1,3-dihydro-indol-2-one] registered a melting point of 275 to 277 °C.

Compound `CCCn1cc2c(C3C(=O)Nc4ccc(C#N)cc43)nc(Cl)nc2n1` (centres unmarked) [Example 183, 3-(6-Chloro-2-propyl-2H-pyrazolo [3,4-d]pyrimidin-4-yl)-2-oxo-2,3-dihydro-1H-indole-5-carbonitrile] returned a melting point of over 300 °C.

In the case of `N#Cc1ccc2c(c1)C(c1nc(Nc3cccnc3)nc3nn(C4CCCC4)cc13)C(=O)N2` (centres unmarked) [Example 169, 3-[2-Cyclopentyl-6-(pyridin-3-ylamino)-2H-pyrazolo [3,4-d]pyrimidin-4-yl]-2-oxo-2,3-dihydro-1H-indole-5-carbonitrile], the IC50 is under 300 nM at His6-GSK-3β (class symbols) and over 10000 nM against CDK5/GST-p25 (class symbols).

On to `Cn1cc2c(C3C(=O)Nc4ccc(Br)cc43)nc(NCCc3cccnc3)nc2n1` (centres unmarked) [Example 305, 5-Bromo-3-[2-methyl-6-(2-pyridin-3-yl-ethylamino)-2H-pyrazolo [3,4-d]pyrimidin-4-yl]-1,3-dihydro-indol-2-one], for which the concentration for half-maximal inhibition (IC50) at His6-GSK-3β (class symbols) and on CDK5/GST-p25 (class symbols) was under 300 nM each time.

On to `O=C1Nc2ccc(Br)cc2C1c1nc(NCc2ccncc2)nc2c1CCC2` (centres unmarked) [Example 336, 5-Bromo-3-{2-[(pyridin-4-ylmethyl)-amino]-6,7-dihydro-5H-cyclopentapyrimidin-4-yl}-1,3-dihydro-indol-2-one], for which the IC50 at His6-GSK-3β (numeric bounds) was over 3000 nM; against CDK5/GST-p25 (class symbols), over 10000 nM.

Regarding `CNCCCNc1nc(C2C(=O)Nc3ccc(Br)cc32)c2cn(CCOC)nc2n1` (centres unmarked) [Example 226, 5-Bromo-3-[2-(2-methoxy-ethyl)-6-(3-methylamino-propylamino)-2H-pyrazolo[3,4-d]pyrimdin-4-yl]-1,3-dihydro-indol-2-one], the concentration for half-maximal inhibition (IC50) on His6-GSK-3β (class symbols) and against CDK5/GST-p25 (class symbols) was under 300 nM throughout.

Take `CNCCCNc1nc(C2C(=O)Nc3ccc(Br)cc32)c2cn(C)nc2n1` (centres unmarked) [Example 306, 5-Bromo-3-[2-methyl-6-(3-methylamino-propylamino)-2H-pyrazolo [3,4-d]pyrimidin-4-yl]-1,3-dihydro-indol-2-one]: the IC50 on His6-GSK-3β (class symbols) was 300 to 3000 nM; on CDK5/GST-p25 (class symbols), under 300 nM.

In the case of `C=CCNc1nc(C2C(=O)Nc3ccc(Br)cc32)c2cn(CCC)nc2n1` (centres unmarked) [Example 193, 3-(6-Allylamino-2-propyl-2H-pyrazolo[3,4-d]pyrimidin-4-yl)-5-bromo-1,3-dihydro-indol-2-one], the IC50 at His6-GSK-3β (class symbols) and against CDK5/GST-p25 (class symbols) was under 300 nM each time.

For `C=CCNc1nc(C2C(=O)Nc3ccc(Br)cc32)c2cn(C)nc2n1` (centres unmarked) [Example 301, 3-(6-Allylamino-2-methyl-2H-pyrazolo[3,4-d]pyrimidin-4-yl)-5-bromo-1,3-dihydro-indol-2-one], the IC50 at His6-GSK-3β (class symbols) and at CDK5/GST-p25 (class symbols) was under 300 nM throughout.

With `CCOCCNc1nc2c(c(C3C(=O)Nc4ccc(F)cc43)n1)CCC2` (centres unmarked) [Example 319, 3-[2-(2-Ethoxy-ethylamino)-6,7-dihydro-5H-cyclopentapyrimidin-4-yl]-5-fluoro-1,3-dihydro-indol-2-one], the half-maximal inhibitory concentration (IC50) at His6-GSK-3β (class symbols) and against CDK5/GST-p25 (class symbols) was over 10000 nM each time.

On to `CN(Cc1cccnc1)c1nc(C2C(=O)Nc3ccc(C#N)cc32)c2cn(C3CCCC3)nc2n1` (centres unmarked) [Example 172, 3-[2-Cyclopentyl-6-(methyl-pyridin-3-ylmethyl-amino)-2H-pyrazolo [3,4-d]pyrimidin-4-yl]-2-oxo-2,3-dihydro-1H-indole-5-carbonitrile], for which the half-maximal inhibitory concentration (IC50) at His6-GSK-3β (class symbols) was under 300 nM; at CDK5/GST-p25 (class symbols) it was over 10000 nM.

As to `CCCn1cc2c(C3C(=O)Nc4ccc(Br)cc43)nc(NC[C@H]3CCCO3)nc2n1` (stereo partly drawn) [Example 366, 5-Bromo-3-(2-propyl-6-{[(R)-1-(tetrahydro-furan-2-yl)methyl]-amino}-2H-pyrazolo[3,4-d]pyrimidin-4-yl)-1,3-dihydro-indol-2-one], the half-maximal inhibitory concentration (IC50) at His6-GSK-3β (class symbols) and against CDK5/GST-p25 (class symbols) was under 300 nM throughout.

For the compound `CCCOCCNc1nc2c(c(C3C(=O)Nc4ccc(Br)cc43)n1)CCC2` (centres unmarked) [Example 333, 5-Bromo-3-[2-(2-propoxy-ethylamino)-6,7-dihydro-5H-cyclopentapyrimidin-4-yl]-1,3-dihydro-indol-2-one], the IC50 at His6-GSK-3β (class symbols) and at CDK5/GST-p25 (class symbols) was over 10000 nM in each case.

`CCCn1cc2c(C3C(=O)Nc4ccc(Br)cc43)nc(NCCCNC)nc2n1` (centres unmarked) [Example 201, 5-Bromo-3-[6-(3-methylamino-propylamino)-2-propyl-2H-pyrazolo [3,4-d]pyrimidin-4-yl]-1,3-dihydro-indol-2-one hydrochloride]: the IC50 on His6-GSK-3β (class symbols) and on CDK5/GST-p25 (class symbols) was under 300 nM each time.

With `CCCn1cc2c(C3C(=O)Nc4ccc(Br)cc43)nc(NC[C@@H]3CCCN3)nc2n1` (stereo partly drawn) [Example 361, 5-Bromo-3-{2-propyl-6-[((S)-1-pyrrolidin-2-ylmethyl)-amino]-2H-pyrazolo[3,4-d]pyrimidin-4-yl}-1,3-dihydro-indol-2-one], the values for the concentration for half-maximal inhibition (IC50) at His6-GSK-3β (class symbols) and on CDK5/GST-p25 (numeric bounds) were under 300 nM and over 3000 nM, respectively.

Consider `O=C1Nc2ccc(Br)cc2C1c1nc(NCc2cccnc2)nc2c1CCC2` (centres unmarked) [Example 337, 5-Bromo-3-{2-[(pyridin-3-ylmethyl)-amino]-6,7-dihydro-5H-cyclopentapyrimidin-4-yl}-1,3-dihydro-indol-2-one], for which the IC50 at His6-GSK-3β (class symbols) and against CDK5/GST-p25 (class symbols) was 300 to 3000 nM in each case.

Take `CCCn1cc2c(C3C(=O)Nc4ccc(Br)cc43)nc(NC[C@H](O)CO)nc2n1` (stereo partly drawn) [Example 364, 5-Bromo-3-[6-((S)-2,3-dihydroxy-propylamino)-2-propyl-2H-pyrazolo [3,4-d]pyrimidin-4-yl]-1,3-dihydro-indol-2-one]: the IC50 on His6-GSK-3β (class symbols) and against CDK5/GST-p25 (class symbols) was under 300 nM throughout.

Consider `CCCn1cc2c(C3C(=O)Nc4ccc(C#N)cc43)nc(NCc3cccnc3)nc2n1` (centres unmarked) [Example 184, 2-Oxo-3-{2-propyl-6-[(pyridin-3-ylmethyl)-amino]-2H-pyrazolo[3,4-d]pyrimidin-4-yl}-2,3-dihydro-1H-indole-5-carbonitrile], for which the IC50 at His6-GSK-3β (class symbols) and against CDK5/GST-p25 (class symbols) was under 300 nM each time.

In the case of `O=C1Nc2ccc(F)cc2C1c1nc(NCc2ccncc2)nc2c1CCC2` (centres unmarked) [Example 320, 5-Fluoro-3-{2-[(pyridin-4-ylmethyl)-amino]-6,7-dihydro-5H-cyclopentapyrimidin-4-yl}-1,3-dihydro-indol-2-one], the concentration for half-maximal inhibition (IC50) at His6-GSK-3β (numeric bounds) and against CDK5/GST-p25 (numeric bounds) was over 3000 nM throughout.

Consider `N#Cc1ccc2c(c1)C(c1nc(NCCc3ccncc3)nc3c1CCC3)C(=O)N2` (centres unmarked) [Example 345, 2-Oxo-3-[2-(2-pyridin-4-yl-ethylamino)-6,7-dihydro-5H-cyclopentapyrimidin-4-yl]-2,3-dihydro-1H-indole-5-carbonitrile], for which, on His6-GSK-3β (@10 μM), the “GSK3β % @10 μM” value was 67% @10 μM. The 50% inhibitory concentration (IC50) against CDK5/GST-p25 (class symbols) was over 10000 nM.

Turning to `N#Cc1ccc2c(c1)C(c1nc(N3CCCC3)nc3nn(C4CCCC4)cc13)C(=O)N2` (centres unmarked) [Example 132, 3-(2-cyclopentyl-6-pyrrolidin-1-yl-2H-pyrazolo [3,4-d]pyrimidin-4-yl)-2-oxo-2,3-dihydro-1H-indole-5-carbonitrile], the values for the 50% inhibitory concentration (IC50) at His6-GSK-3β (class symbols) and at CDK5/GST-p25 (class symbols) were under 300 nM and over 10000 nM, respectively.

Consider `N#Cc1ccc2c(c1)C(c1nc(NCc3ccncc3)nc3nn(C4CCCC4)cc13)C(=O)N2` (centres unmarked) [Example 176, 3-{2-Cyclopentyl-6-[(pyridin-4-ylmethyl)-amino]-2H-pyrazolo[3,4-d]pyrimidin-4-yl}-2-oxo-2,3-dihydro-1H-indole-5-carbonitrile], for which the concentration for half-maximal inhibition (IC50) at His6-GSK-3β (class symbols) and against CDK5/GST-p25 (class symbols) was under 300 nM in each case.

Usually melting point stands for the temperature of the solid-liquid transition. By IC50 is commonly meant the concentration that gives 50% inhibition.
